# From patent US20180168208A1 (priority 2014, published 2018)
# Target: T1R1/T1R3 receptor (Felis catus, UniProt E3UMS2)
# Test: cell-based
# Assay type: cell-based
# Details: + Alanine (20 nM); Table 17
# Text: HEK293 cells that stably express T1R3 and inducibly express T1R1 were exposed to transmembrane compounds alone or in combination with one or more amino acids and/or one or more nucleotides to activate the umami receptor. Activation of the T1R1/T1R3 receptor was detected by a change in intracellular calcium levels using a calcium sensitive fluorescent dye. Cells that express T1R3 but not T1R1 were used as a control. A FLIPR® Tetra or a FlexStation® 3 was used for data capture.
# In each experiment, serial dilutions of up to 10 mM of the transmembrane compound were added to the T1R1/T1R3-expressing cells.
row,SMILES,Thres +Alanine
1,CCC(CC)NC(=O)c1ccc(Br)o1 [5-bromo-N-(pentan-3-yl)furan-2-carboxamide],1 mM
2,COc1ccc(/C=C/C(=O)NC2CCCCC2C)cc1 (centres unmarked) [(E)-3-(4-methoxyphenyl)-N-(2-methylcyclohexyl) acrylamide],3 mM
3,COC(=O)C(NC(=O)/C=C/c1cccs1)C(C)C (centres unmarked) [(E)-methyl 3-methyl-2-(3-(thiophen-2-yl)acrylamido)butanoate],10 mM
4,O=C(NCCc1ccccc1)C(=O)NCc1cccnc1 [N1-phenethyl-N2-(pyridin-3-ylmethyl)oxalamide],1 mM
5,"CC1CCCC(NC(=O)c2ccc3c(c2)OCO3)C1C (centres unmarked) [N-(2,3-dimethylcyclohexyl) benzo[d][1,3]dioxole-5-carboxamide]",3 mM

# Same assay, conditions: + Alanine; Table 17
SMILES,Max resp % of IMP + Alanine,Max resp ΔF/F +Alanine
CCC(CC)NC(=O)c1ccc(Br)o1 [5-bromo-N-(pentan-3-yl)furan-2-carboxamide],126.8 % of IMP,1.575
COc1ccc(/C=C/C(=O)NC2CCCCC2C)cc1 (centres unmarked) [(E)-3-(4-methoxyphenyl)-N-(2-methylcyclohexyl) acrylamide],63.2 % of IMP,0.785
COC(=O)C(NC(=O)/C=C/c1cccs1)C(C)C (centres unmarked) [(E)-methyl 3-methyl-2-(3-(thiophen-2-yl)acrylamido)butanoate],9.5 % of IMP,0.1175
O=C(NCCc1ccccc1)C(=O)NCc1cccnc1 [N1-phenethyl-N2-(pyridin-3-ylmethyl)oxalamide],30.2 % of IMP,0.3750
"CC1CCCC(NC(=O)c2ccc3c(c2)OCO3)C1C (centres unmarked) [N-(2,3-dimethylcyclohexyl) benzo[d][1,3]dioxole-5-carboxamide]",18.1 % of IMP,0.225

# Same assay, conditions: + Alanine; Table 17; read-out: EC50 + Alanine
row,SMILES,EC50
1,CCC(CC)NC(=O)c1ccc(Br)o1 [5-bromo-N-(pentan-3-yl)furan-2-carboxamide],> 3 mM
2,COc1ccc(/C=C/C(=O)NC2CCCCC2C)cc1 (centres unmarked) [(E)-3-(4-methoxyphenyl)-N-(2-methylcyclohexyl) acrylamide],> 10 mM
3,O=C(NCCc1ccccc1)C(=O)NCc1cccnc1 [N1-phenethyl-N2-(pyridin-3-ylmethyl)oxalamide],> 1 mM

# Same assay, conditions: + IMP (0.2 mM); Table 17
SMILES,Max resp % of ALa + IMP,Thres + IMP
CSc1ccc(-c2nnn(Cc3ccccn3)n2)cc1 [2-((5-(4-(methylthio)phenyl)-2H-tetrazol-2-yl)methyl)pyridine],80.7 % of ALa,0.1575 mM
CCC(CC)NC(=O)c1ccc(Br)o1 [5-bromo-N-(pentan-3-yl)furan-2-carboxamide],149.6 % of ALa,0.3 mM
COc1ccc(/C=C/C(=O)NC2CCCCC2C)cc1 (centres unmarked) [(E)-3-(4-methoxyphenyl)-N-(2-methylcyclohexyl) acrylamide],144.0 % of ALa,0.3 mM
COC(=O)C(NC(=O)/C=C/c1cccs1)C(C)C (centres unmarked) [(E)-methyl 3-methyl-2-(3-(thiophen-2-yl)acrylamido)butanoate],59.9 % of ALa,1 mM
O=C(NCCc1ccccc1)C(=O)NCc1cccnc1 [N1-phenethyl-N2-(pyridin-3-ylmethyl)oxalamide],61.9 % of ALa,0.1 mM
"CC1CCCC(NC(=O)c2ccc3c(c2)OCO3)C1C (centres unmarked) [N-(2,3-dimethylcyclohexyl) benzo[d][1,3]dioxole-5-carboxamide]",95.4 % of ALa,0.275 mM
"COc1cc(C(=O)NC(C(N)=O)c2ccccc2)cc(Cl)c1OC (centres unmarked) [N-(2-amino-2-oxo-1-phenylethyl)-3-chloro-4,5-dimethoxybenzamide]",49.4 % of ALa,0.17 mM
"CCCC(CCC)C(=O)Nc1ccc2c(c1)OCO2 [N-(benzo[d][1,3]dioxol-5-yl)-2-propylpentanamide]",108.0 % of ALa,0.0675 mM

# Same assay, conditions: +Alanine (20 mM); Table 18
SMILES,Max resp ΔF/F +Alanine,Thres +Alanine
CCC(CC)NC(=O)c1ccc(Br)o1 [5-bromo-N-(pentan-3-yl)furan-2-carboxamide],1.575,1 mM
COc1ccc(/C=C/C(=O)NC2CCCCC2C)cc1 (centres unmarked) [(E)-3-(4-methoxyphenyl)-N-(2-methylcyclohexyl) acrylamide],0.785,3 mM
COC(=O)C(NC(=O)/C=C/c1cccs1)C(C)C (centres unmarked) [(E)-methyl 3-methyl-2-(3-(thiophen-2-yl)acrylamido)butanoate],0.1175,10 mM
O=C(NCCc1ccccc1)C(=O)NCc1cccnc1 [N1-phenethyl-N2-(pyridin-3-ylmethyl)oxalamide],0.3750,1 mM
"CC1CCCC(NC(=O)c2ccc3c(c2)OCO3)C1C (centres unmarked) [N-(2,3-dimethylcyclohexyl) benzo[d][1,3]dioxole-5-carboxamide]",0.225,3 mM

# Same assay, conditions: +Alanine (20 mM); Table 18; read-out: EC50 +Alanine
row,SMILES,EC50
1,CCC(CC)NC(=O)c1ccc(Br)o1 [5-bromo-N-(pentan-3-yl)furan-2-carboxamide],> 3 mM
2,COc1ccc(/C=C/C(=O)NC2CCCCC2C)cc1 (centres unmarked) [(E)-3-(4-methoxyphenyl)-N-(2-methylcyclohexyl) acrylamide],> 10 mM
3,O=C(NCCc1ccccc1)C(=O)NCc1cccnc1 [N1-phenethyl-N2-(pyridin-3-ylmethyl)oxalamide],> 1 mM
4,"CC1CCCC(NC(=O)c2ccc3c(c2)OCO3)C1C (centres unmarked) [N-(2,3-dimethylcyclohexyl) benzo[d][1,3]dioxole-5-carboxamide]",> 3 mM

# Same assay, conditions: +IMP (0.2 mM); Table 18
SMILES,Max resp % of Ala +IMP,Max resp ΔF/F +IMP
CSc1ccc(-c2nnn(Cc3ccccn3)n2)cc1 [2-((5-(4-(methylthio)phenyl)-2H-tetrazol-2-yl)methyl)pyridine],80.7 % of Ala,0.678
CCC(CC)NC(=O)c1ccc(Br)o1 [5-bromo-N-(pentan-3-yl)furan-2-carboxamide],149.6 % of Ala,1.8425
COc1ccc(/C=C/C(=O)NC2CCCCC2C)cc1 (centres unmarked) [(E)-3-(4-methoxyphenyl)-N-(2-methylcyclohexyl) acrylamide],144.0 % of Ala,1.7725
COC(=O)C(NC(=O)/C=C/c1cccs1)C(C)C (centres unmarked) [(E)-methyl 3-methyl-2-(3-(thiophen-2-yl)acrylamido)butanoate],59.9 % of Ala,0.7375
O=C(NCCc1ccccc1)C(=O)NCc1cccnc1 [N1-phenethyl-N2-(pyridin-3-ylmethyl)oxalamide],61.9 % of Ala,0.7625
"CC1CCCC(NC(=O)c2ccc3c(c2)OCO3)C1C (centres unmarked) [N-(2,3-dimethylcyclohexyl) benzo[d][1,3]dioxole-5-carboxamide]",95.4 % of Ala,1.175
"COc1cc(C(=O)NC(C(N)=O)c2ccccc2)cc(Cl)c1OC (centres unmarked) [N-(2-amino-2-oxo-1-phenylethyl)-3-chloro-4,5-dimethoxybenzamide]",49.4 % of Ala,0.415
"CCCC(CCC)C(=O)Nc1ccc2c(c1)OCO2 [N-(benzo[d][1,3]dioxol-5-yl)-2-propylpentanamide]",108.0 % of Ala,0.908

# Same assay, conditions: EC50 + IMP, + IMP (0.2 mM); Table 17
row,SMILES,EC50
1,CSc1ccc(-c2nnn(Cc3ccccn3)n2)cc1 [2-((5-(4-(methylthio)phenyl)-2H-tetrazol-2-yl)methyl)pyridine],0.63 mM
2,CCC(CC)NC(=O)c1ccc(Br)o1 [5-bromo-N-(pentan-3-yl)furan-2-carboxamide],> 1 mM
3,COc1ccc(/C=C/C(=O)NC2CCCCC2C)cc1 (centres unmarked) [(E)-3-(4-methoxyphenyl)-N-(2-methylcyclohexyl) acrylamide],> 3 mM
4,COC(=O)C(NC(=O)/C=C/c1cccs1)C(C)C (centres unmarked) [(E)-methyl 3-methyl-2-(3-(thiophen-2-yl)acrylamido)butanoate],> 10 mM
5,O=C(NCCc1ccccc1)C(=O)NCc1cccnc1 [N1-phenethyl-N2-(pyridin-3-ylmethyl)oxalamide],> 0.3 mM
6,"CC1CCCC(NC(=O)c2ccc3c(c2)OCO3)C1C (centres unmarked) [N-(2,3-dimethylcyclohexyl) benzo[d][1,3]dioxole-5-carboxamide]",1.1 mM
7,"COc1cc(C(=O)NC(C(N)=O)c2ccccc2)cc(Cl)c1OC (centres unmarked) [N-(2-amino-2-oxo-1-phenylethyl)-3-chloro-4,5-dimethoxybenzamide]",0.68 mM
8,"CCCC(CCC)C(=O)Nc1ccc2c(c1)OCO2 [N-(benzo[d][1,3]dioxol-5-yl)-2-propylpentanamide]",0.27 mM

# Same assay, conditions: EC50 +Alanine + IMP, +Alanine (20 mM) + IMP (0.2 mM); Table 18
row,SMILES,EC50
1,CSc1ccc(-c2nnn(Cc3ccccn3)n2)cc1 [2-((5-(4-(methylthio)phenyl)-2H-tetrazol-2-yl)methyl)pyridine],0.27 mM
2,CCC(CC)NC(=O)c1ccc(Br)o1 [5-bromo-N-(pentan-3-yl)furan-2-carboxamide],> 1 mM
3,COc1ccc(/C=C/C(=O)NC2CCCCC2C)cc1 (centres unmarked) [(E)-3-(4-methoxyphenyl)-N-(2-methylcyclohexyl) acrylamide],> 3 mM
4,COC(=O)C(NC(=O)/C=C/c1cccs1)C(C)C (centres unmarked) [(E)-methyl 3-methyl-2-(3-(thiophen-2-yl)acrylamido)butanoate],> 10 mM
5,O=C(NCCc1ccccc1)C(=O)NCc1cccnc1 [N1-phenethyl-N2-(pyridin-3-ylmethyl)oxalamide],0.2 mM
6,"CC1CCCC(NC(=O)c2ccc3c(c2)OCO3)C1C (centres unmarked) [N-(2,3-dimethylcyclohexyl) benzo[d][1,3]dioxole-5-carboxamide]",0.6 mM
7,"COc1cc(C(=O)NC(C(N)=O)c2ccccc2)cc(Cl)c1OC (centres unmarked) [N-(2-amino-2-oxo-1-phenylethyl)-3-chloro-4,5-dimethoxybenzamide]",0.75 mM
8,"CCCC(CCC)C(=O)Nc1ccc2c(c1)OCO2 [N-(benzo[d][1,3]dioxol-5-yl)-2-propylpentanamide]",0.09 mM

# Same assay, conditions: EC50 +IMP, +IMP (0.2 mM); Table 18
row,SMILES,EC50
1,CSc1ccc(-c2nnn(Cc3ccccn3)n2)cc1 [2-((5-(4-(methylthio)phenyl)-2H-tetrazol-2-yl)methyl)pyridine],0.63 mM
2,CCC(CC)NC(=O)c1ccc(Br)o1 [5-bromo-N-(pentan-3-yl)furan-2-carboxamide],> 1 mM
3,COc1ccc(/C=C/C(=O)NC2CCCCC2C)cc1 (centres unmarked) [(E)-3-(4-methoxyphenyl)-N-(2-methylcyclohexyl) acrylamide],> 3 mM
4,COC(=O)C(NC(=O)/C=C/c1cccs1)C(C)C (centres unmarked) [(E)-methyl 3-methyl-2-(3-(thiophen-2-yl)acrylamido)butanoate],> 10 mM
5,O=C(NCCc1ccccc1)C(=O)NCc1cccnc1 [N1-phenethyl-N2-(pyridin-3-ylmethyl)oxalamide],> 0.3 mM
6,"CC1CCCC(NC(=O)c2ccc3c(c2)OCO3)C1C (centres unmarked) [N-(2,3-dimethylcyclohexyl) benzo[d][1,3]dioxole-5-carboxamide]",1.1 mM
7,"COc1cc(C(=O)NC(C(N)=O)c2ccccc2)cc(Cl)c1OC (centres unmarked) [N-(2-amino-2-oxo-1-phenylethyl)-3-chloro-4,5-dimethoxybenzamide]",0.68 mM
8,"CCCC(CCC)C(=O)Nc1ccc2c(c1)OCO2 [N-(benzo[d][1,3]dioxol-5-yl)-2-propylpentanamide]",0.27 mM

# Same assay, conditions: compound alone
row,SMILES,activation of T1R1/T1R3 by the compound alone (in words)
1,"COc1cc(C(=O)NC(C(N)=O)c2ccccc2)cc(Cl)c1OC (centres unmarked) [N-(2-amino-2-oxo-1-phenylethyl)-3-chloro-4,5-dimethoxybenzamide]",failed to activate T1R1/T1R3 alone
2,"CCCC(CCC)C(=O)Nc1ccc2c(c1)OCO2 [N-(benzo[d][1,3]dioxol-5-yl)-2-propylpentanamide]",agonist of T1R1/T1R3 alone

# Same assay, conditions: compound alone in buffer; Table 17; read-out: EC50 + buffer (alone)
row,SMILES,EC50
1,CCC(CC)NC(=O)c1ccc(Br)o1 [5-bromo-N-(pentan-3-yl)furan-2-carboxamide],> 3 mM
2,COc1ccc(/C=C/C(=O)NC2CCCCC2C)cc1 (centres unmarked) [(E)-3-(4-methoxyphenyl)-N-(2-methylcyclohexyl) acrylamide],> 10 mM
3,O=C(NCCc1ccccc1)C(=O)NCc1cccnc1 [N1-phenethyl-N2-(pyridin-3-ylmethyl)oxalamide],> 1 mM
4,"CC1CCCC(NC(=O)c2ccc3c(c2)OCO3)C1C (centres unmarked) [N-(2,3-dimethylcyclohexyl) benzo[d][1,3]dioxole-5-carboxamide]",2 mM
5,"CCCC(CCC)C(=O)Nc1ccc2c(c1)OCO2 [N-(benzo[d][1,3]dioxol-5-yl)-2-propylpentanamide]",0.35 mM

# Same assay, conditions: compound alone in buffer; Table 18; read-out: EC50 +buffer (alone)
row,SMILES,EC50
1,CCC(CC)NC(=O)c1ccc(Br)o1 [5-bromo-N-(pentan-3-yl)furan-2-carboxamide],> 3 mM
2,COc1ccc(/C=C/C(=O)NC2CCCCC2C)cc1 (centres unmarked) [(E)-3-(4-methoxyphenyl)-N-(2-methylcyclohexyl) acrylamide],> 10 mM
3,O=C(NCCc1ccccc1)C(=O)NCc1cccnc1 [N1-phenethyl-N2-(pyridin-3-ylmethyl)oxalamide],> 1 mM
4,"CC1CCCC(NC(=O)c2ccc3c(c2)OCO3)C1C (centres unmarked) [N-(2,3-dimethylcyclohexyl) benzo[d][1,3]dioxole-5-carboxamide]",2 mM
5,"CCCC(CCC)C(=O)Nc1ccc2c(c1)OCO2 [N-(benzo[d][1,3]dioxol-5-yl)-2-propylpentanamide]",0.35 mM

# Same assay, conditions: read-out: EC50 + Alanine
row,SMILES,EC50
1,"CC1CCCC(NC(=O)c2ccc3c(c2)OCO3)C1C (centres unmarked) [N-(2,3-dimethylcyclohexyl) benzo[d][1,3]dioxole-5-carboxamide]",> 3 mM
